Measured values taken from ChEMBL document CHEMBL4177539, “Discovery of N-((3R,4R)-4-Fluoro-1-(6-((3-methoxy-1-methyl-1H-pyrazol-4-yl)amino)-9-methyl-9H-purin-2-yl)pyrrolidine-3-yl)acrylamide (PF-06747775) through Structure-Based Drug Design: A High Affinity Irreversible Inhibitor Targeting Oncogenic EGFR Mutants with Selectivity over Wild-Type EGFR” (J Med Chem, 2017).

Legend:
in vitro [1] = details: human, liver microsomes
in vitro [2] = details: dog, MDCK
physchem = details: octanol/water
Homo sapiens = species on record: Homo sapiens; experiment: Selectivity index, ratio of IC50 for wild-type EGFR autophosphorylation in human A549 cells to IC50 for EGFR T790M/L858R double mutant autophosphorylation in human H1975 cells; assay type: cell-based
[3] = biological target: Epidermal growth factor receptor (Homo sapiens, UniProt P00533)
Chain of Epidermal growth factor receptor (P00533 whole entry): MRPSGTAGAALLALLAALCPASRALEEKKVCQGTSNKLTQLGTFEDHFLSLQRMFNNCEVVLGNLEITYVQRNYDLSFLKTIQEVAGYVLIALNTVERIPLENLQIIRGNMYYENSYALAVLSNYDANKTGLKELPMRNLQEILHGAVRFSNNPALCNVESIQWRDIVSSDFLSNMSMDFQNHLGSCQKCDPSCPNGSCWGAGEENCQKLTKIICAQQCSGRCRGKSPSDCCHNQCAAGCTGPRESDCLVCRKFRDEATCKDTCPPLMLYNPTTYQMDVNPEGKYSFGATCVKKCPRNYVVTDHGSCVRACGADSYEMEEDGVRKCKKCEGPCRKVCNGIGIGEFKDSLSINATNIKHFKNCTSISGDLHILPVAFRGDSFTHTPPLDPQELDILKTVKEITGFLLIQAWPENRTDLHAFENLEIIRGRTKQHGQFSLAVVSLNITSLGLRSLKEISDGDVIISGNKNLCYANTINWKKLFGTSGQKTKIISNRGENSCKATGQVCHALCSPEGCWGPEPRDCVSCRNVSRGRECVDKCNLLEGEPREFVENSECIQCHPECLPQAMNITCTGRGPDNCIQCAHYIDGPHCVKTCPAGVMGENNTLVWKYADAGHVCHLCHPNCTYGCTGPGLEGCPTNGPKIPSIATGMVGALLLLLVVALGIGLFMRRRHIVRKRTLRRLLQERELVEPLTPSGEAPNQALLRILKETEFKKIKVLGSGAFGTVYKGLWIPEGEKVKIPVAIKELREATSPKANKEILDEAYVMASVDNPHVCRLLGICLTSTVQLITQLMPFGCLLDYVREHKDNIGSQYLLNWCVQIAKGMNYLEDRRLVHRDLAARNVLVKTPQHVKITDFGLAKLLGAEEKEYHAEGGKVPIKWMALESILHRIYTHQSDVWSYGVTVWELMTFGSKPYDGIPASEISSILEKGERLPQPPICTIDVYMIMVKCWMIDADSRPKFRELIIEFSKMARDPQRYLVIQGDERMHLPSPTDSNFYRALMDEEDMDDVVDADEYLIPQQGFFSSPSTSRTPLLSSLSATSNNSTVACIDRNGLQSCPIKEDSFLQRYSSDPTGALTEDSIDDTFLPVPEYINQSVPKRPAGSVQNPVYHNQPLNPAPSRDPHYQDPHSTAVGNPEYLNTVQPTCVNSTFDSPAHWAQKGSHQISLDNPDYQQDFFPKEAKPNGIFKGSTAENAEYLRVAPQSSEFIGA

| microsomal CLint at […], 1 µM (in vitro [1]) | Papp (in vitro [2]) | logD (physchem) | IC50 [3] | SMILES | Ratio IC50 (Homo sapiens) |
| --- | --- | --- | --- | --- | --- |
| 8 µL/min/mg | 2 ×10⁻⁶ cm/s | 1.8 | – | C=CC(=O)N[C@@H]1CN(c2nc(Nc3cn(C)nc3OC)c3nc[nH]c3n2)C[C@H]1F | – |
| – | – | 1.8 | > 10 µM | C=CC(=O)N1CC[C@H](Nc2nc(Nc3ccc(N4CCN(C)CC4)cc3)c3ncn(C(C)C)c3n2)C1 | > 35 |
